# Experimental data: patent publication US7347970B2, “Biocides based on silanol terminated silanes and siloxanes” (University of Florida Research Foundation, Inc., priority 2004, dated 2008)
# Key:
# Type in all cases: cell-based
# E. coli [1] = assay: Antimicrobial (bioactivity) test, plate counts and dilution method, log reduction; conditions: for bioactivity against E. coli: with cosolvent propylene glycol n-propyl ether, FIG. 6
# Method: Bioactivity (toxicity) tests were performed using silanols according to the invention along with some controls. E. coli was provided as the target microorganism. […] 20th ed. L. S. Clesceri, A. E. Greenberg, A. D. Eaton (eds.) Washington, D.C. was employed to measure the number of viable cells after the bioactivity tests. The collected sample underwent serial dilutions in which the original sample collected was diluted in a series of dilution tubes. Each succeeding dilution tube will have only one-tenth the number of microbial cells as the preceding tube. Then the samples of the dilution were used to inoculate Petri plates containing solid medium. The sample on the plates was plated evenly over the surface of the solid medium. Colonies grew only on surface of medium and could be counted. This count was used to estimate the number of viable bacterial in the original sample.
# Log reduction represents the number of E. coli eliminated through the silanol or other chemical treatment. The experiments were operated for an hour with proper stirring in aqueous solution. […] Log reduction 8 represents the detection limit for the experiment performed, and thus represents complete removal.
# (§1) Nine (9) ml of D.I. water was mixed with 1 ml of E. coli solution, and antimicrobial materials for 1 hr with magnetic stirring, then sampling was carried out. The plate counting method as described above was employed to measure the viability of the E. coli.
# E. coli [2] = assay: Minimum lethal concentration (MLC) against E. coli; conditions: for minimum lethal concentration compared with corresponding alcohol: E. coli, FIG. 10
# Method: The minimum lethal concentration against E. coli for each silanol is defined as the maximum dilution of the product that will kill a test organism. […] The antimicrobial effect increased with an increase in the number of the alkyl chain of the substituent R, in the order of methyl<ethyl<n-propyl<n-butyl as shown FIG. 5.
# Antimicrobial test was carried out to compare the bioactivity of fragrance ingredient of alcohols and the corresponding silanols according to the invention against E. coli. Alcohols, 2-methyl-1-phenyl-2-propanol corresponding to benzyldimethylsilanol, 2-methyl-4-phenyl-2-butanol corresponding to phenethyldimethylsilanol, were obtained from Sigma-Aldrich, and the silanols were prepared by the hydrolysis of chlorosilane.
# as §1
# E. coli [3] = assay: Antimicrobial (bioactivity) test, plate counts and dilution method, log reduction; conditions: 0.2 (% g/g), 10 minute mixing, FIG. 3; below detection limit
# [4] = 2 (% g/g), FIG. 4, complete removal
# [5] = 0.1% g/g with cosolvent propylene glycol n-propyl ether, FIG. 6/7
Molecule,log reduction of E. coli (E. coli [1]; [4]),log reduction of E. coli (E. coli [1]; [5]),also measured
"C[Si](C)(O)CCC(F)(F)F [3,3,3-trifluoropropyldimethylsilanol]",eight,–,–
"CC(C)(C)O [t-butanol, reference compound]",–,–,bioactivity against E. coli (E. coli [1]): did not provide significant bioactivity
C[Si](C)(C)O [trimethyisilanol],–,8 log,–
C[Si](C)(O)c1ccccc1 [Phenyldimethylsilanol],eight,–,–
vinylphenylmethylsilanol,eight,–,–
diphenylmethylsilanol,–,8 log,–
"C[Si](C)(O)CCc1ccccc1 [Phenethyldimethylsilanol (UF), Phenethyldimethylsilanol]",–,–,minimum lethal concentration compared with corresponding alcohol (E. coli [2]): lower than their corresponding alcohols
C=C[Si](C)(C)O [vinyldimethylsilanol],eight,–,–
"C[Si]1(C)O[Si](C)(C)O[Si](C)(C)O[Si](C)(C)O1 [D4, octamethylcyclotetrasiloxane, reference compound]",–,–,bioactivity against E. coli (E. coli [1]): did not provide significant bioactivity
"C[Si](C)(O)Cc1ccccc1 [Benzyldimethylsilanol (UF), Benzyldimethylsilanol]",–,–,minimum lethal concentration compared with corresponding alcohol (E. coli [2]): lower than their corresponding alcohols
CC[Si](O)(CC)CC [triethylsilanol],eight,8 log,"log reduction of E. coli (E. coli [1]; 2.5 (% g/g), FIG. 2, 8 = detection limit): 8 log; antimicrobial effect (log reduction of E. coli) (E. coli [1]; 10 (% g/g), one hour stirring in aqueous solution, FIG. 1): high antimicrobial effect; antimicrobial effect by minimum lethal concentration (E. coli [2]; FIG. 5): strong antimicrobial effect; reduction of E. coli (E. coli [3]): more than eight"
CC(C)(C)[Si](C)(C)O [t-butyldimethylsilanol],–,8 log,–
